Legend:
[1] = molecular target: T1, C-X-C chemokine receptor type 2 (Homo sapiens, UniProt P25025); assay: Displacement of [125I]IL8 from CXCR2 expressed in CHO cells; format: cell-based
T1 sequence (P25025 whole entry): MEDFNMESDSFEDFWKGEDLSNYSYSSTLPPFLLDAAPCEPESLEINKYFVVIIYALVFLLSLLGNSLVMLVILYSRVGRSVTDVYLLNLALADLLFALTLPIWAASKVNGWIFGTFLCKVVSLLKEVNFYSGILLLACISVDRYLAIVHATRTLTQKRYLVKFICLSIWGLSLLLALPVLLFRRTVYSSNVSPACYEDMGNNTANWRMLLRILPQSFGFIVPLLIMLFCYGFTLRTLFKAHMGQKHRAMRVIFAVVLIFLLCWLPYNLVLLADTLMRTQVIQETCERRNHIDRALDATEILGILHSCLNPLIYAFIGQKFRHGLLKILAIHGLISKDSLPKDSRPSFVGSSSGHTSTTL

[2] = molecular target: T2, C-X-C chemokine receptor type 1 (Homo sapiens, UniProt P25024); assay: Displacement of [125I]IL8 from CXCR1 expressed in CHO cells; format: cell-based
T2 sequence (P25024 whole entry): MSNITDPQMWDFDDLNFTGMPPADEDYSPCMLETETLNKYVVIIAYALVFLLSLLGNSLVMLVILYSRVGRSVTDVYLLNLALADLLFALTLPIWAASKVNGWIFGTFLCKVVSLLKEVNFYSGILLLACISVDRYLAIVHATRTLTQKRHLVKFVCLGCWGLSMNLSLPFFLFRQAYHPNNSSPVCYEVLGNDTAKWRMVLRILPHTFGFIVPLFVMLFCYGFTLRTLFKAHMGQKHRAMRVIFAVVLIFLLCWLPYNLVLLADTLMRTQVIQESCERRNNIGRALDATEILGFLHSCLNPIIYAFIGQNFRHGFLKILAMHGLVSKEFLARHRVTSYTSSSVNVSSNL

[3] = Dissociation constant, pKa of the compound; format: physicochemical
[4] = molecular target: Interleukin-8 receptors, CXCR1/CXCR2 (Homo sapiens) (UniProt P25025+P25024); assay: Selectivity for CXCR2 over CXCR1; format: protein assay

SMILES	IC50 [1]	IC50 [2]	pKa [3]	Ratio IC50 [4]
CCC(CC)(NS(=O)(=O)c1c(Cl)ccc(N=C(NC#N)Nc2ccccc2C)c1O)N1C[C@@H](C)O[C@@H](C)C1	17 nM (antagonist)	1080 nM	–	–
CN(C)S(=O)(=O)c1c(F)ccc(N/C(=N/C#N)Nc2ccccc2Br)c1O	4 nM (antagonist)	192 nM (antagonist)	–	–
CCC(CC)(NS(=O)(=O)c1c(Cl)ccc(N/C(=N/C#N)Nc2ccccc2Br)c1O)N1CCC[C@@H]1C(=O)O	16 nM (antagonist)	22 nM (antagonist)	–	–
CCC(CC)(NS(=O)(=O)c1c(Cl)ccc(N/C(=N/C#N)Nc2ccccc2Br)c1O)N1C[C@@H](C)O[C@@H](C)C1	9 nM (antagonist)	215 nM (antagonist)	6.41	–
CCC(CC)(NS(=O)(=O)c1c(Cl)ccc(N/C(=N/C#N)Nc2ccccc2Br)c1O)N1CCC(N)CC1	22 nM (antagonist)	188 nM (antagonist)	–	–
CCC(CC)(NS(=O)(=O)c1cccc(N/C(=N/C#N)Nc2ccccc2Br)c1O)N1CCOCC1	12 nM (antagonist)	582 nM (antagonist)	6.48	–
CN(C)S(=O)(=O)c1c(Cl)ccc(N/C(=N/C#N)Nc2ccccc2Br)c1O	5 nM (antagonist)	55 nM (antagonist)	–	–
CC(C)c1ccccc1N/C(=N\C#N)Nc1ccc(Cl)c(S(=O)(=O)N(C)C)c1O	112 nM (antagonist)	7290 nM	–	–
CN(C)S(=O)(=O)c1c(Cl)ccc(N=C(NC#N)Nc2ccccc2C(F)(F)F)c1O	12 nM (antagonist)	411 nM (antagonist)	–	–
CN(C)S(=O)(=O)c1c(Cl)ccc(N=C(NC#N)Nc2ccccc2F)c1O	9 nM (antagonist)	1550 nM	–	–

Other lines, results leading:

IC50 [1]	IC50 [2]	pKa [3]	Ratio IC50 [4]	SMILES
17 nM (antagonist)	378 nM (antagonist)	–	–	Cc1ccccc1NC(=Nc1ccc(Cl)c(S(=O)(=O)N(C)C)c1O)NC#N
9 nM (antagonist)	293 nM (antagonist)	–	–	CN(C)S(=O)(=O)c1c(Cl)ccc(N/C(=N/C#N)Nc2ccccc2OCc2ccccc2)c1O
15 nM (antagonist)	512 nM (antagonist)	–	–	CCc1ccccc1NC(=Nc1ccc(Cl)c(S(=O)(=O)N(C)C)c1O)NC#N
13 nM (antagonist)	752 nM (antagonist)	–	–	CN(C)S(=O)(=O)c1c(Cl)ccc(N/C(=N/C#N)Nc2ccccc2-c2ccccc2)c1O
7 nM (antagonist)	100 nM (antagonist)	–	–	CN(C)S(=O)(=O)c1c(C(F)(F)F)ccc(N/C(=N/C#N)Nc2ccccc2Br)c1O
29 nM (antagonist)	6200 nM	–	–	CN(C)S(=O)(=O)c1c(Cl)ccc(N=C(NC#N)Nc2cccc(Cl)c2F)c1O
–	–	–	> 200	CN(C)S(=O)(=O)c1c(Cl)ccc(N/C(=N/C#N)Nc2cccc(Cl)c2F)c1O
6 nM (antagonist)	104 nM (antagonist)	–	–	CCC(CC)(NS(=O)(=O)c1c(C)ccc(N=C(NC#N)Nc2ccccc2Br)c1O)N1CCOCC1
7 nM (antagonist)	187 nM (antagonist)	–	–	Cc1ccc(N=C(NC#N)Nc2ccccc2Br)c(O)c1S(=O)(=O)N(C)C

— ChEMBL document CHEMBL1139694, “N,N'-Diarylcyanoguanidines as antagonists of the CXCR2 and CXCR1 chemokine receptors” (Bioorg Med Chem Lett, 2006)
